# Calls of active or inactive are those of the source. No cut-off for these calls is given here.
# Legend:
# [1] = biological target: T1, Cyclin-dependent kinase 9 (Homo sapiens, UniProt P50750); test: Induction of HyT-mediated degradation of CDK9 in human 22Rv1 cells at 0.3 to 3 uM incubated for 24 hrs by immunoblot analysis; type: cell-based; settings: dose 0.3-3 µM
# [2] = biological target: T2, Cyclin-T1 (Homo sapiens, UniProt O60563); test: Induction of HyT-mediated degradation of Cyclin T1 in human 22Rv1 cells at 0.3 to 3 uM incubated for 24 hrs by immunoblot analysis; type: cell-based; settings: dose 0.3-3 µM
# T2 sequence (O60563 whole entry): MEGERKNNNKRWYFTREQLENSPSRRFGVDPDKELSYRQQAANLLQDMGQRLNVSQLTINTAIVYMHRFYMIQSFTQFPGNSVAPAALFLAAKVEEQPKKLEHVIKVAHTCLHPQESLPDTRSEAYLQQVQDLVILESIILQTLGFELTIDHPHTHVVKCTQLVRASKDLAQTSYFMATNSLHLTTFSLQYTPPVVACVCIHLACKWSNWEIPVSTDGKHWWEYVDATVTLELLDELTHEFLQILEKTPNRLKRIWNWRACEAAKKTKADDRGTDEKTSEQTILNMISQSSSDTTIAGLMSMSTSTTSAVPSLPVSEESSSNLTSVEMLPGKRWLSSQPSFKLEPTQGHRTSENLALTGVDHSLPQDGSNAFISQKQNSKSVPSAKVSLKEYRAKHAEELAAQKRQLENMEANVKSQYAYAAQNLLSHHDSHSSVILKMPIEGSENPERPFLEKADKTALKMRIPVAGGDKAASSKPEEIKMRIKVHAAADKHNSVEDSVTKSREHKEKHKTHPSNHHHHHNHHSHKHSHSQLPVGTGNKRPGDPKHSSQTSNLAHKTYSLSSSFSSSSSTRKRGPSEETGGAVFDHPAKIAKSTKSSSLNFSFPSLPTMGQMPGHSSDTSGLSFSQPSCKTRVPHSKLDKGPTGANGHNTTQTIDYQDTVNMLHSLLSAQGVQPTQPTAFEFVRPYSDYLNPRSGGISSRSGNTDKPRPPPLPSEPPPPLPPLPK
# [3] = tested on: CWR22R; test: Downregulation of cyclin D1 protein expression in human 22Rv1 cells at 2 uM incubated for 24 hrs by DIA-based proteomics analysis; type: functional, cell-based
# [4] = tested on: CWR22R; test: Antiproliferative activity against human 22Rv1 cells assessed as reduction in cell viability measured after 5 days by CellTiter-Glo assay; type: functional, cell-based; settings: 22Rv1, 120 h
# [5] = tested on: CWR22R; test: Upregulation of […] protein expression in human 22Rv1 cells at 2 uM incubated for 24 hrs by DIA-based proteomics analysis; type: functional, cell-based
# [6] = tested on: CWR22R; test: Induction of cell cycle arrest in human 22Rv1 cells assessed as accumulation of cells at sub-G1 phase at 0.3 to 1 uM incubated for 24 hrs by propidium iodide staining based flow cytometry; type: functional; settings: dose 0.3-1 µM
# [7] = tested on: CWR22R; test: Induction of apoptosis in human 22Rv1 cells at 0.3 to 1 uM incubated for 24 hrs by AnnexinV-FITC/PI staining based flow cytometry; type: functional, cell-based; settings: dose 0.3-1 µM
# [8] = tested on: CWR22R; test: Induction of cell cycle arrest in human 22Rv1 cells assessed as accumulation of cells at G1 phase at 0.3 to 1 uM incubated for 24 hrs by propidium iodide staining based flow cytometry; type: functional; settings: dose 0.3-1 µM
# [9] = biological target: T1, Cyclin-dependent kinase 9; test: Induction of HyT-mediated degradation of CDK9 in human 22Rv1 cells assessed as reduction in CDK9 protein level at 3 uM incubated for 24 hrs by immunoblot analysis relative to control; type: cell-based; parameters: scale not given: the % may be the effect or the level left
# [10] = biological target: T1, Cyclin-dependent kinase 9; test: Induction of degradation of CDK9 in human 22Rv1 cells at 3 uM measured for 36 hrs by DIA-based proteomics analysis; type: cell-based
# [11] = biological target: T1, Cyclin-dependent kinase 9; test: Induction of CDK9 degradation in human 22Rv1 cells assessed as decrease in cyclin C protein expression at 3 uM measured for 36 hrs by DIA-based proteomics analysis; type: cell-based
# [12] = biological target: T2, Cyclin-T1; test: Induction of Cyclin T1 degradation in human 22Rv1 cells assessed as cyclin T1 level at 3 uM incubated for 24 hrs by DIA-based proteomics analysis; type: cell-based
# [13] = tested on: CWR22R; test: Downregulation of CCNT1 mRNA expression in human 22Rv1 cells at 2 uM incubated for 24 hrs by transcriptome RNA-seq analysis; type: functional, cell-based
# [14] = biological target: Cyclin-dependent kinase 1 (Homo sapiens) (UniProt P06493); test: Induction of CDK1 degradation in human 22Rv1 cells assessed as downregulation of CDK1 level at 3 uM measured after 12 hrs by DIA-based proteomics analysis; type: cell-based
# Cyclin-dependent kinase 1 (Homo sapiens), sequence (P06493 whole entry, looked up): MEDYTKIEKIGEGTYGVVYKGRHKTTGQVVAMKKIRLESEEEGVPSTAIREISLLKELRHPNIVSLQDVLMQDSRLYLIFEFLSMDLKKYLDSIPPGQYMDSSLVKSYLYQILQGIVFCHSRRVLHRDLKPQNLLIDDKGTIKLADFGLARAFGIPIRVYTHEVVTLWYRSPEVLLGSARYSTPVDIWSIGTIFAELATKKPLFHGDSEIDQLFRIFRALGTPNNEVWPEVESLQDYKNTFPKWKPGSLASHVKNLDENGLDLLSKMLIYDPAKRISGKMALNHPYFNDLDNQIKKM
# [15] = biological target: Cyclin-dependent kinase 7 (Homo sapiens) (UniProt P50613); test: Induction of CDK7 degradation in human 22Rv1 cells assessed as downregulation of CDK7 level at 3 uM measured after 12 hrs by DIA-based proteomics analysis; type: cell-based
# Cyclin-dependent kinase 7 (Homo sapiens), sequence (P50613 whole entry): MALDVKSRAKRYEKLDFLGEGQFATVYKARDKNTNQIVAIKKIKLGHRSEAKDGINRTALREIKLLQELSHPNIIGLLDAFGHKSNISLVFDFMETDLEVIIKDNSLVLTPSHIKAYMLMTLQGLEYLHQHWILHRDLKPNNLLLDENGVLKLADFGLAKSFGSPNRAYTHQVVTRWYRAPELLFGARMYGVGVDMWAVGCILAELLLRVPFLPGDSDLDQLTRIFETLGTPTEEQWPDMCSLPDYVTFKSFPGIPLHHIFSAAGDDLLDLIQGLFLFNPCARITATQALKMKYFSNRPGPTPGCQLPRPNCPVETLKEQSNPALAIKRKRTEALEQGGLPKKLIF
# [16] = biological target: T1, Cyclin-dependent kinase 9; test: Induction of degradation of CDK9 in human 22Rv1 cells assessed as reduction in CDK9 level at 2 uM measured after 9 hrs by immunoblot analysis; type: cell-based
# [17] = biological target: T1, Cyclin-dependent kinase 9; test: Induction of degradation of CDK9 in human 22Rv1 cells at 2 uM measured after 0 to 7 hrs by immunoblot analysis; type: cell-based; settings: time 0-7 hrs
# [18] = biological target: T1, Cyclin-dependent kinase 9; test: Induction of CDK9 degradation in human 22Rv1 cells assessed as inhibition of Ser2 phosphorylation of RNA Pol II CTD at 0.3 to 3 uM incubated for 24 hrs by immunoblot analysis; type: cell-based; settings: dose 0.3-3 µM
# [19] = biological target: T1, Cyclin-dependent kinase 9; test: Induction of CDK9 degradation in human 22Rv1 cells assessed as decrease in cyclin B1 protein expression at 3 uM measured for 36 hrs by DIA-based proteomics analysis; type: cell-based
# [20] = biological target: Cyclin-dependent kinase 6 (Homo sapiens) (UniProt Q00534); test: Induction of CDK6 degradation in human 22Rv1 cells assessed as downregulation of CDK6 level at 3 uM measured after 12 hrs by DIA-based proteomics analysis; type: cell-based
# Cyclin-dependent kinase 6 (Homo sapiens), sequence (Q00534 whole entry): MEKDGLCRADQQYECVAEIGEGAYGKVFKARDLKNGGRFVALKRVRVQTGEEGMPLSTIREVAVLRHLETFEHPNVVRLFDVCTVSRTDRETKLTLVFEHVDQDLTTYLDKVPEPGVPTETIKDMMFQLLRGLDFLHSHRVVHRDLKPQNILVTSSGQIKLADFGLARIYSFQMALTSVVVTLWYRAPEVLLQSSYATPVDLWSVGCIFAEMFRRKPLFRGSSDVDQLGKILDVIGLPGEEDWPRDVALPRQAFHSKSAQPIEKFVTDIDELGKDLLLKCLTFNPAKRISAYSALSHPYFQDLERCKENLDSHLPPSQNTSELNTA
# [21] = biological target: T1, Cyclin-dependent kinase 9; test: Induction of CDK9 degradation in human 22Rv1 cells assessed as decrease in cyclin D1 protein expression at 3 uM measured for 36 hrs by DIA-based proteomics analysis; type: cell-based
# [22] = biological target: T1, Cyclin-dependent kinase 9; test: Induction of CDK9 degradation in human 22Rv1 cells assessed as downregulation of AR protein expression at 3 uM measured for 36 hrs by DIA-based proteomics analysis; type: cell-based
# [23] = tested on: CWR22R; test: Inhibition of colony formation in human 22Rv1 cells at 100 to 200 nM treated for 14 days with replacement with fresh medium containing compound for every 48 hrs by crystal violet staining based analysis; type: functional, cell-based; settings: dose 100-200 nM, time 14.0 day
# [24] = biological target: T1, Cyclin-dependent kinase 9; test: Induction of CDK9 degradation in human 22Rv1 cells at 3 uM incubated for 24 hrs by DIA-based proteomics analysis; type: cell-based
# [25] = biological target: T1, Cyclin-dependent kinase 9; test: Induction of CDK9 degradation in human 22Rv1 cells assessed as downregulation of MCL1 protein expression at 0.3 to 3 uM incubated for 24 hrs by immunoblot analysis; type: cell-based; settings: dose 0.3-3 µM
# [26] = biological target: T2, Cyclin-T1; test: Induction of degradation of Cyclin T1 in human 22Rv1 cells at 3 uM measured for 36 hrs by DIA-based proteomics analysis; type: cell-based
# [27] = biological target: Cyclin-dependent kinase 4 (Homo sapiens) (UniProt P11802); test: Induction of CDK4 degradation in human 22Rv1 cells assessed as downregulation of CDK4 level at 3 uM measured after 12 hrs by DIA-based proteomics analysis; type: cell-based
# Cyclin-dependent kinase 4 (Homo sapiens), sequence (P11802 whole entry): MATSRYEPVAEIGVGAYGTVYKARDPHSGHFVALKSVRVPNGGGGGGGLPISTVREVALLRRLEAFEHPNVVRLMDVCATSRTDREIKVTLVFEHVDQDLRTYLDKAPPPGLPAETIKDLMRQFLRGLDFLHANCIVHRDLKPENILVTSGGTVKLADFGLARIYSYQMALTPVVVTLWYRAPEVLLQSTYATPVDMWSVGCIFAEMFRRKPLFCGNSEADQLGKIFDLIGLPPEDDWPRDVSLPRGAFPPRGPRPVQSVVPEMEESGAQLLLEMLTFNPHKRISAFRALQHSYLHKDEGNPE
# [28] = biological target: Cyclin-dependent kinase 11B (Homo sapiens) (UniProt P21127); test: Induction of CDK11B degradation in human 22Rv1 cells at 3 uM measured after 36 hrs by DIA-based proteomics analysis; type: cell-based
# Cyclin-dependent kinase 11B (Homo sapiens), sequence (P21127 whole entry): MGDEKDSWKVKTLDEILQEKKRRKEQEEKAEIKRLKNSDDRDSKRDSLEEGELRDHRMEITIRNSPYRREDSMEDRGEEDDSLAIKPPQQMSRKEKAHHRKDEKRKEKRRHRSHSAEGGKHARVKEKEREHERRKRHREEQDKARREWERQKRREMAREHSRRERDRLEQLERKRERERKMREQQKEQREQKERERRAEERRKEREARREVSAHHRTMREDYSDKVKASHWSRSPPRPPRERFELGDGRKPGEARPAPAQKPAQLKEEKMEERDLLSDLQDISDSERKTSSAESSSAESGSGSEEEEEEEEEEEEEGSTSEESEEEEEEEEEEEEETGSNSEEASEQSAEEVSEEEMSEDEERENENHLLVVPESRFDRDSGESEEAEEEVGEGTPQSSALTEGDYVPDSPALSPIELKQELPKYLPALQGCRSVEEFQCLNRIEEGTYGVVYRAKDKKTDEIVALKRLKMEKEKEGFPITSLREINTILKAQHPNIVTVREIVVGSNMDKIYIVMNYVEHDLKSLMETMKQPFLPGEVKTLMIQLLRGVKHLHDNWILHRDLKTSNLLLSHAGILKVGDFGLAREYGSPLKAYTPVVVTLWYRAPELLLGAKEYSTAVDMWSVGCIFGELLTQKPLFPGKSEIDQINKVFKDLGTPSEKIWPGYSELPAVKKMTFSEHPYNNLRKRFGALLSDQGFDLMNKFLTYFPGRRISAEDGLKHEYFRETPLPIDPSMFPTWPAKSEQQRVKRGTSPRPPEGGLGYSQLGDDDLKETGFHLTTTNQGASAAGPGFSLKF
# [29] = biological target: T1, Cyclin-dependent kinase 9; test: Induction of CDK9 degradation in human 22Rv1 cells assessed as decrease in cyclin A2 protein expression at 3 uM measured for 36 hrs by DIA-based proteomics analysis; type: cell-based
# [30] = biological target: T2, Cyclin-T1; test: Induction of HyT-mediated degradation of Cyclin T1 in human 22Rv1 cells at 3 uM incubated for 24 hrs by immunoblot analysis relative to control; type: cell-based
# [31] = biological target: T1, Cyclin-dependent kinase 9; test: Induction of HyT-mediated degradation of CDK9 in human 22Rv1 cells at 3 uM incubated for 24 hrs by immunoblot analysis relative to control; type: cell-based
# [32] = biological target: T2, Cyclin-T1; test: Induction of HyT-mediated degradation of Cyclin T1 in human 22Rv1 cells assessed as reduction in Cyclin T1 level at 3 uM incubated for 24 hrs by immunoblot analysis; type: cell-based
# T1 sequence (P50750 whole entry): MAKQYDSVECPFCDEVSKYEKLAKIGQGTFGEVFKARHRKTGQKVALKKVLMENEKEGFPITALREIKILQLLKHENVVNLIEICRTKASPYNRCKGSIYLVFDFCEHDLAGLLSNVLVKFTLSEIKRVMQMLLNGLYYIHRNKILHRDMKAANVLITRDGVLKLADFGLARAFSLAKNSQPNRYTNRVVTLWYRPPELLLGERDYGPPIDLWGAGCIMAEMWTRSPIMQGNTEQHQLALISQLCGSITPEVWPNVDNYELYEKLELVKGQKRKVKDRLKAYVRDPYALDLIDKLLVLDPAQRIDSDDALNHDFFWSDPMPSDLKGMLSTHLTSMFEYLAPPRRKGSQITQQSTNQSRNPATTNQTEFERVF
compound,measurement,setting,value
CC(C)(C)OC(=O)NC(=NCCC[C@@H](NC(=O)OC(C)(C)C)C(=O)NCCS(=O)(=O)N1CCC(C(=O)Nc2ncc(SCc3ncc(C(C)(C)C)o3)s2)CC1)NC(=O)OC(C)(C)C,Activity,[1],Active
same,Activity,[2],Active
CC(C)(C)c1cnc(CSc2cnc(NC(=O)C3CCNCC3)s2)o1 [BMS-387032],inhibition,[3],Active
same,IC50,[4],0.384 µM
same,Activity,[5],Active
same,Activity,[6],Active
same,Activity,[7],Active
same,Activity,[8],Active
CC(C)[C@@H]1CC[C@@H](C)C[C@H]1OCC(=O)N1CCN(CCS(=O)(=O)N2CCC(C(=O)Nc3ncc(SCc4ncc(C(C)(C)C)o4)s3)CC2)CC1,Activity,[9],> 50%
CC(C)[C@@H]1CC[C@@H](C)C[C@H]1OCC(=O)NCCN1CCC(C(=O)Nc2ncc(SCc3ncc(C(C)(C)C)o3)s2)CC1,Activity,[1],Active
same,Activity,[2],Active
CC(C)(C)c1cnc(CSc2cnc(NC(=O)C3CCN(S(=O)(=O)CCNC(=O)NC45CC6CC(CC(C6)C4)C5)CC3)s2)o1,Activity,[1],Active
same,Activity,[2],Active
CC(C)(C)c1cnc(CSc2cnc(NC(=O)C3CCN(CC(=O)NCCOCCOCCOCCNc4cccc5c4C(=O)N(C4CCC(=O)NC4=O)C5=O)CC3)s2)o1 (stereo not given),Activity,[10],Active
same,Activity,[11],Active
same,Activity,[12],40.2%
same,inhibition,[13],Active
same,Activity,[14],Active
same,Activity,[15],Active
same,Activity,[16],Active
same,Activity,[17],Active
same,Activity,[18],Active
same,Activity,[19],Active
same,IC50,[4],0.049 µM
same,Activity,[6],Active
same,Activity,[20],Active
same,Activity,[7],Active
same,Activity,[21],Active
same,Activity,[22],Active
same,inhibition,[23],Active
same,Activity,[24],Active
same,Activity,[8],Active
same,Activity,[25],Active
same,Activity,[26],Active
same,Activity,[27],Active
same,Activity,[28],Active
same,Activity,[29],Active
CC(C)[C@@H]1CC[C@@H](C)C[C@H]1OCC(=O)NCCCOCCS(=O)(=O)N1CCC(C(=O)Nc2ncc(SCc3ncc(C(C)(C)C)o3)s2)CC1,Activity,[30],< 40%
same,Activity,[31],< 40%
CC(C)[C@@H]1CC[C@@H](C)C[C@H]1OCC(=O)NCCOCCS(=O)(=O)N1CCC(C(=O)Nc2ncc(SCc3ncc(C(C)(C)C)o3)s2)CC1,Activity,[1],Active
same,Activity,[32],Active
CC(C)(C)c1cnc(CSc2cnc(NC(=O)C3CCN(S(=O)(=O)CCNC(=O)CC45CC6CC(CC(C6)C4)C5)CC3)s2)o1,Activity,[1],Active
same,Activity,[2],Active
CC(C)[C@@H]1CC[C@@H](C)C[C@H]1OCC(=O)NCCCCN1CCC(C(=O)Nc2ncc(SCc3ncc(C(C)(C)C)o3)s2)CC1,Activity,[1],Active
same,Activity,[2],Active
